These results are taken from US20160185717A1, “COMPOUNDS WITH ANTIBACTERIAL ACTIVITY” (FUNDACIÓN MEDINA. CENTRO DE EXCELENCIA EN INVESTIGACIÓN DE …, priority 2013, published 2016).

Converted amounts (≈) assume the structure as drawn.

For one experiment, the system named is A. baumannii 2443. The experiment can be described thus: Broth microdilution MIC. The class given is cell-based, Acinetobacter baumannii. The note with it: A. baumannii 2443, Clinical isolate. The protocol: (§1) Antibacterial activity of compounds MDN-0057, MDN-0058, MDN-0059 and MDN-0060 was evaluated using the broth microdilution methodology. This method is used to determine minimum inhibitory concentrations (MICs) which are defined as the lowest concentration of an antimicrobial compound that will inhibit the visible growth of a microorganism after overnight incubation.
(§2) In the microbroth dilution assay, microorganisms were selected by streaking bacteria culture from a cryovial into Mueller Hinton II (MHII) agar plate(s) and incubate overnight at 37° C. Thereafter, 3 to 5 characteristic fresh colonies were selected and suspended in 25 mL of MHII broth media for 2 hours shaking at 220 rpm. The 2 hour broth cultures were adjusted to an optical density of 0.111 at 660 nm and then diluted to 1:100 in order to obtain assay inoculums.
(§3) The four compounds evaluated were serially diluted in 100% DMSO with a dilution factor of 2 to provide 10 compound concentrations starting at 8 mg/mL.
(§4) For the assays, 90 μL/well of the appropriated diluted inoculum were mixed with 1.6 μL/well of each compound concentration and 8.4 μL/well of MHII broth media, resulting in an additional dilution of these compounds to yield concentrations in the assay wells from 128 μg/mL to 0.25 μg/mL. After that, the assay plates were read in a Tecan Ultraevolution spectrophotometer at 612 nm for T0 (zero time). Then, the plates were statically incubated at 37° C. for 20 hours. After incubation, they were shaken in a DPC Micromix-5 and read again for Tf (final time). Percentage of growth inhibition was calculated using the following normalization:
(§5) % Inhibition=[1-[(TfSample-T0Sample)−(TfBlank-T0blank)/(TfGrowth-T0Growth)−(TfBlank-T0blank)]×100. • Where, • T0 Sample=the absorbance of the strain growth in the presence of sample measured at zero time (before incubation). • Tf Sample=the absorbance of the strain growth in the presence of sample measured at final time (after incubation) • T0 Growth=the absorbance of the strain growth in the absence of sample measured at zero time (before incubation). • Tf Growth=the absorbance of the strain growth in the absence of sample measured at final time (after incubation). • T0 Blank=the absorbance of the broth medium (blank) measured at zero time (before incubation). • Tf Blank=the absorbance of the broth medium (blank) measured at final time (after incubation).
Background: In broth dilution the organism is exposed to a series of concentrations in liquid medium.

The subject of a further experiment is A. baumannii 2444. The experiment can be described thus: Broth microdilution MIC. In kind it is cell-based, Acinetobacter baumannii. The note with it: A. baumannii 2444, ΔadellJK. The protocol:
as §1, §2, §3, §4, §5

Another experiment has as its system A. baumannii 2446. The experiment can be described thus: Broth microdilution MIC. The class given is cell-based, Acinetobacter baumannii. Conditions: A. baumannii 2446, ΔadeABC, ΔadellJK. The protocol:
as §1, §2, §3, §4, §5

A further experiment deals with A. baumannii ATCC 19606. The experiment can be described thus: Broth microdilution MIC. The class given is cell-based, Acinetobacter baumannii. Conditions: A. baumannii ATCC 19606, Clinical isolate. As for the experimental part: as §1, §2, §3, §4, §5
Experiment [1] deals with A. baumannii ATCC BAA-747. As to the kind of experiment: Broth microdilution MIC. The class given is cell-based, Acinetobacter baumannii. The note with it: A. baumannii ATCC BAA-747, Clinical isolate. As for the experimental part:
as §1, §2, §3, §4, §5

For a further experiment, the system named is P. aeruginosa 839. The experiment can be described thus: Broth microdilution MIC. The class given is cell-based, Pseudomonas aeruginosa. The note with it: P. aeruginosa 839, ΔMexAB-OprM. The protocol:
as §1, §2, §3, §4, §5

For another experiment, the system named is P. aeruginosa ATCC 27853. As to the kind of experiment: Broth microdilution MIC. Conditions: P. aeruginosa ATCC 27853, wild type. In kind it is cell-based, Pseudomonas aeruginosa. As for the experimental part:
as §1, §2, §3, §4, §5

Experiment [2] deals with RNA synthesis in E. coli acrAB::Tn903. The experiment can be described thus: Macromolecular labeling assay, RNA synthesis. The class given is cell-based, Escherichia coli. Conditions: at up to 8-fold the MIC, [3H] uridine. The protocol: (§6) The macromolecular synthesis assay, in which the inhibition of the intracellular building blocks of macromolecules are measured, provides guidance for understanding the broad MOA of compounds
(§7) The inhibitory effect on synthesis of macromolecules in the lipid, cell wall, DNA, RNA and protein synthesis pathways was determined in growing cells of E. coli acrAB::Tn903. Cells were grown at 35° C. overnight on Trypticase Soy agar, and this culture was used to inoculate 15 ml of Mueller Hinton broth II (MHB). The culture was grown to early exponential growth phase (OD600=0.2 to 0.3) while incubating in a shaker at 35° C. and 200 rpm.
Cells in early exponential phase were exposed to MDN-0057, and their incorporation of radioactive precursors in each pathway was determined. Rifampicin, Ciprofloxacin, Tetracycline, Imipenem and Irgasan were included as positive controls for inhibition of RNA, DNA, protein, cell wall and lipid synthesis, respectively. (FIG. 1)
DNA, RNA, and protein synthesis: When cells reached early exponential phase, 100 μL of culture was added to triplicate wells containing various concentrations of MDN-0057 or control antibiotics (2.5 μL) at 40× the final concentration in 100% DMSO or deionized water (dH2O). […] After washing five times with 200 μL per well of cold 5% TCA, the filters were allowed to dry, and then counted using a Packard Top Count microplate scintillation counter.

Experiment [3] has as its system cell wall synthesis in E. coli acrAB::Tn903. The experiment can be described thus: Macromolecular labeling assay, cell wall synthesis. The class given is cell-based, Escherichia coli. The protocol: as §6, §7
Cells in early exponential phase were exposed to MDN-0057, and their incorporation of radioactive precursors in each pathway was determined. […]
Cell wall synthesis: Bacterial cells in early exponential growth phase were transferred to M9 minimal medium and added to 1.5 ml eppendorf tubes (100 μl/tube) containing various concentrations of MDN-0057 or control antibiotics (2.5 μl) at 40× the final concentration in 100% DMSO or dH2O as described above. […] After washing three times with 5 ml of 0.1% SDS, the filters were rinsed two times with 5 mL of dH2O, allowed to dry, and then counted using a Beckman LS3801 liquid scintillation counter.

Consider `[C-]#[N+]C(=C)C(Cc1ccc(OC)cc1)([N+]#[C-])C1CC(O)CCC1OC(=O)CO` (stereo not shown) [MDN-0057], for which the MIC (usually the least concentration at which growth counts as inhibited) against A. baumannii 2443 was 4 µg/mL (≈ 10.4 µM); with A. baumannii 2444, 0.25 µg/mL (≈ 0.65 µM); with A. baumannii 2446, below 0.06 µg/mL; against A. baumannii ATCC 19606, 2 to 4 µg/mL; in experiment [1] it was 2 to 4 µg/mL; in the experiment with P. aeruginosa 839 it was 1 to 2 µg/mL. Besides, the MIC in the experiment with P. aeruginosa ATCC 27853 lay within 2 to 8 µg/mL. In addition, the “Inhibition of RNA synthesis” value in experiment [2] was “Little or no inhibition”. For the same compound, in [3] (at 2 to 8-fold the MIC, [14C] N-acetylglucosamine, apparent dose-response), the “Maximum inhibition of cell wall synthesis” value is reported as “ca. 75%”. The “Inhibition of Macromolecular Synthesis (FIG. 1 legend)” value in experiment [3] (at 2× MIC, strain E. coli acrAB::Tn903) is “signal for Cell Wall Biosynthesis”.
